Experimental data reported in patent US9156811B2 (priority 2008, dated 2015).
Structures can show the parent of a compound that is named as a salt.

The compounds below were run on Trypanosome (T. brucei brucei) (assay: In-vitro antitrypanosomal efficacy assay (cell growth, resazurin)). Settings: not given.
Type: cell-based

Row | Compound | ED50 (μM) T. brucei [µM]
1 | Cc1nn(C)c(C)c1N(C(F)F)[S+](=O)([O-])c1c(Cl)cc(CCCC2CCNCC2)cc1Cl [DDD100096, 2,6-Dichloro-N-(difluoromethyl)-4-(3-(piperidin-4-yl)propyl)-N-(1,3,5-trimethyl-4H-pyrazol-4-yl)benzenesulfonamide hydrochloride salt] | 0.003

Same assay, conditions: T. brucei brucei, blood stream form, variant 221

Row | Compound | ED50 (μM) T. brucei [µM]
2 | Cc1ccc(-c2ccc([S+](=O)([O-])Nc3c(CC(C)C)nn(C)c3C)cc2)cc1CN(C)C [DDD99824] | 0.014
3 | Cc1nn(C)c(C)c1N(C)[S+](=O)([O-])c1ccc(CCCCCCCN(C)C)cc1 [DDD99825] | 0.054
4 | Cc1c(N[S+](=O)([O-])c2ccc(-c3cc(CN(C)C)ccc3Cl)cc2)c(CC(C)C)nn1C [DDD99826] | 0.104
5 | Cc1nn(C)c(C)c1N[S+](=O)([O-])c1ccc(CCCCC2CCN(C)CC2)cc1 [DDD99830] | 0.020
6 | Cc1c(N[S+](=O)([O-])c2ccc(-c3ccc(F)c(CN(C)C)c3)cc2)c(CC(C)C)nn1C [DDD99832] | 0.010
7 | Cc1nn(C)c(C)c1N(C)[S+](=O)([O-])c1c(Cl)cc(CCCCCCn2ccnc2)cc1Cl [DDD99833] | 0.018
8 | Cc1nn(C)c(C)c1N(C)[S+](=O)([O-])c1c(Cl)cc(CCCCCn2ccnc2)cc1Cl [DDD99834] | 0.225
9 | CCc1nn(C)c(CC)c1N(C)[S+](=O)([O-])c1c(Cl)cc(CCCN2CCN(C)CC2)cc1Cl [DDD99836] | 0.013
10 | Cc1nn(C)c(C)c1N(C)[S+](=O)([O-])c1ccc(CCCCCCCn2ccnc2)cc1 [DDD99838] | >1
11 | Cc1nn(C)c(C)c1N(C(F)F)[S+](=O)([O-])c1c(Cl)cc(CCCN2CCN(C)CC2)cc1Cl [DDD100086] | 0.012
12 | CCN(c1c(C)nn(C)c1C)[S+](=O)([O-])c1c(Cl)cc(CCCC2CCN(C)CC2)cc1Cl [DDD100088] | 0.003
13 | CCN(c1c(C)nn(C)c1C)[S+](=O)([O-])c1c(Cl)cc(CCCC2CCNCC2)cc1Cl [DDD100091] | 0.004
14 | Cc1nn(C)c(C)c1N(C)[S+](=O)([O-])c1ccc(CCCCCCCCN(C)C)cc1 [DDD100093] | 0.106
15 | Cc1c(N[S+](=O)([O-])c2ccc(-c3ccc(OC(F)(F)F)c(CN(C)C)c3)cc2)c(CC(C)C)nn1C [DDD100140] | >1
16 | Cc1nn(C)c(C)c1N(CC(F)F)[S+](=O)([O-])c1c(Cl)cc(CCCN2CCCNCC2)cc1Cl [DDD100142] | 0.014
17 | Cc1c(N[S+](=O)([O-])c2ccc(-c3ccc(Cl)c(CN(C)C)c3)cc2)c(CC(C)C)nn1C [DDD100143] | 0.017
18 | Cc1nn(C)c(C)c1N(CC(F)F)[S+](=O)([O-])c1c(Cl)cc(CCCC2CCNCC2)cc1Cl [DDD100145] | 0.02
19 | Cc1nn(C)c(C)c1N(CC(F)(F)F)[S+](=O)([O-])c1c(Cl)cc(CCCC2CCNCC2)cc1Cl [DDD100151] | 0.034
20 | Cc1nn(C)c(C)c1N(CC(F)(F)F)[S+](=O)([O-])c1c(Cl)cc(CCCN2CCCN(C)CC2)cc1Cl [DDD100157] | 0.014
21 | Cc1nn(C)c(C)c1N(CC(F)F)[S+](=O)([O-])c1c(Cl)cc(CCCCC2CCN(C)CC2)cc1Cl [DDD100159] | 0.009
22 | Cc1nn(C)c(C)c1N(CC(F)F)[S+](=O)([O-])c1c(Cl)cc(CCCC2CCN(C)CC2)cc1Cl [DDD100160] | 0.013
23 | Cc1nn(C)c(C)c1N(CC(F)F)[S+](=O)([O-])c1c(Cl)cc(CCCOC2CCN(C)CC2)cc1Cl [DDD100161] | 0.006
24 | Cc1nn(C)c(C)c1N(C(F)F)[S+](=O)([O-])c1c(Cl)cc(CCCN2CCCN(C)CC2)cc1Cl [DDD100164] | 0.001
25 | Cc1nn(C)c(C)c1N(CC(F)(F)F)[S+](=O)([O-])c1c(Cl)cc(CCCCC2CCN(C)CC2)cc1Cl [DDD100165] | 0.020
26 | Cc1nn(C)c(C)c1N(C(F)F)[S+](=O)([O-])c1c(Cl)cc(CCCN2CCCNCC2)cc1Cl [DDD100166] | 0.002
27 | Cc1nn(C)c(C)c1N(CC(F)(F)F)[S+](=O)([O-])c1c(Cl)cc(CCCCC2CCNCC2)cc1Cl [DDD100167] | 0.014
28 | Cc1c(N[S+](=O)([O-])c2ccc(-c3cccc(CN4[C@@H](C)CC[C@@H]4C)c3)cc2)c(CC(C)C)nn1C [DDD100790] | 0.269
29 | CCc1nccn1CCCCCCc1cc(Cl)c([S+](=O)([O-])N(c2c(C)nn(C)c2C)C(F)F)c(Cl)c1 [DDD100794] | 0.160
30 | Cc1nn(C)c(C)c1N(C(F)F)[S+](=O)([O-])c1c(Cl)cc(CCCCCCn2ccnc2C)cc1Cl [DDD100795] | 0.005
31 | Cc1nn(C)c(C)c1N(CC(F)F)[S+](=O)([O-])c1c(Cl)cc(CCCN2CCCN(C)CC2)cc1Cl [DDD100802] | 0.004

Same assay, conditions: T. brucei cell growth

Row | Compound | ED50 (μM) T. brucei [µM]
32 | CCN(CC)Cc1cccc(-c2ccc([S+](=O)([O-])N(C)c3c(CC(C)C)nn(C)c3C)cc2)c1 [DDD88643] | 0.49
33 | Cc1nn(C)c(C)c1N(C)[S+](=O)([O-])c1c(Cl)cc(CCCN2CCN(C)CC2)cc1Cl [DDD88644] | 0.012
34 | Cc1nn(C)c(C)c1N(CC(F)(F)F)[S+](=O)([O-])c1ccc(-c2ccnc(N3CCNCC3)c2)cc1 [DDD88645] | 0.021
35 | CCN(c1c(C)nn(C)c1C)[S+](=O)([O-])c1c(Cl)cc(-c2ccnc(N3CCNCC3)c2)cc1Cl [DDD88646] | 0.002
36 | Cc1nn(C)c(C)c1N(C)[S+](=O)([O-])c1c(Cl)cc(CCCC2CCNCC2)cc1Cl [DDD90022] | 0.002
37 | Cc1nn(C)c(C)c1N(C)[S+](=O)([O-])c1ccc(CCCC2CCN(C)CC2)cc1 [DDD90023] | 0.20
38 | Cc1nn(C)c(C)c1N(CC(F)(F)F)[S+](=O)([O-])c1ccc(-c2cccc(CN3CCN(C)CC3)c2)cc1 [DDD90057] | 0.73
39 | Cc1nn(C)c(C)c1N(C)[S+](=O)([O-])c1ccc(-c2cccc(CC3CCN(C)CC3)c2)cc1 [DDD90091] | 0.063
40 | Cc1nn(C)c(C)c1N(C)[S+](=O)([O-])c1ccc(-c2cccc(CC3CCNCC3)c2)cc1 [DDD90098] | 0.060
41 | Cc1nn(C)c(C)c1N(CC(F)F)[S+](=O)([O-])c1ccc(-c2ccnc(N3CCNCC3)c2)cc1 [DDD90111] | 0.005
42 | Cc1nn(C)c(C)c1N(C)[S+](=O)([O-])c1ccc(CCCC2CCNCC2)cc1 [DDD90112] | 0.270
43 | Cc1nn(C)c(C)c1N(C)[S+](=O)([O-])c1c(Cl)cc(-c2cccc(CN3CCN(C)CC3)c2)cc1Cl [DDD90118] | 0.015
44 | Cc1c(N(C)[S+](=O)([O-])c2ccc(CCCC3CCN(C)CC3)cc2)c(CC(C)C)nn1C [DDD90142] | 0.168
45 | Cc1c(N[S+](=O)([O-])c2ccc(CCCC3CCNCC3)cc2)c(CC(C)C)nn1C [DDD90144] | 0.034
46 | Cc1nn(C)c(C)c1N(C)[S+](=O)([O-])c1ccc(CCCCCN(C)C)cc1 [DDD90145] | 1.00
47 | Cc1nn(C)c(C)c1N(C)[S+](=O)([O-])c1c(Cl)cc(CCCC2CCN(C)CC2)cc1Cl [DDD90146] | 0.002

Row | Compound | ED50 (μM) T. brucei [µM]
48 | CCN(c1c(C)nn(C)c1C)[S+](=O)([O-])c1c(Cl)cc(CCCN2CCN(C)CC2)cc1Cl [DDD90154] | 0.023
49 | Cc1c(N[S+](=O)([O-])c2ccc(-c3cccc(CN4CCCC4)c3)cc2)c(CC(C)C)nn1C [DDD99739] | 0.058
50 | CNCc1cccc(-c2ccc([S+](=O)([O-])Nc3c(CC(C)C)nn(C)c3C)cc2)c1 [DDD99748] | 0.036
51 | Cc1nn(C)c(C)c1N(C)[S+](=O)([O-])c1c(Cl)cc(CCCN2CC(C)NC(C)C2)cc1Cl (centres unmarked) [DDD99751] | 0.021
52 | Cc1nn(C)c(C)c1N(C)[S+](=O)([O-])c1ccc(CCCCCCN(C)C)cc1 [DDD99753] | 0.406
53 | Cc1nn(C)c(C)c1N(C)[S+](=O)([O-])c1c(Cl)cc(CCCN2CCCNCC2)cc1Cl [DDD99755] | 0.002
54 | Cc1c(N[S+](=O)([O-])c2ccc(-c3cccc(C4CCNCC4)c3)cc2)c(CC(C)C)nn1C [DDD099757] | 0.061
55 | Cc1nn(C)c(C)c1N[S+](=O)([O-])c1ccc(CCCC2CCNCC2)cc1 [DDD99758] | 0.110
56 | Cc1nn(C)c(C)c1N[S+](=O)([O-])c1c(Cl)cc(CCCC2CCNCC2)cc1Cl [DDD99759] | 0.003
57 | Cc1nn(C)c(C)c1N[S+](=O)([O-])c1ccc(CCCCC2CCNCC2)cc1 [DDD99760] | 0.010
58 | Cc1nn(C)c(C)c1NS(=O)(=O)c1ccc(C#CCCC2CCN(C)CC2)cc1 [DDD99761] | 0.240
59 | Cc1c(N(C)[S+](=O)([O-])c2ccc(-c3cccc(C4CCNCC4)c3)cc2)c(CC(C)C)nn1C [DDD99815] | 0.123
60 | Cc1c(N[S+](=O)([O-])c2ccc(-c3cccc(CN(C)C)c3F)cc2)c(CC(C)C)nn1C [DDD99816] | 0.031
61 | Cc1cc(CCCN2CCN(C)CC2)cc(C)c1[S+](=O)([O-])N(C)c1c(C)nn(C)c1C [DDD99818] | 0.047
62 | Cc1nn(C)c(C)c1N[S+](=O)([O-])c1ccc(CCCOC2CCN(C)CC2)cc1 [DDD99820] | 0.020
